The values below come from patent publication US4306069A, “Encainide N-oxide” (priority 1980, dated 1981).

A short description of one data set: Water solubility. The format is physicochemical.
A short description of data set [1]: Toxicity, oral doses in mice (ALD50, ATD50). The data set is classed as in vivo. The following applies: in vivo, mouse, oral, 5 mg/kg to 2000 mg/kg, 2 mice each dose; for LD50: read-out: ALD50 (approximate lethal dose for half the animals); for TD50: read-out: ATD50 (approximate lowest dose where signs of physiologic or neurologic deficit appear). Here is the method:
(§1) ^(1) Various oral doses of from 5 mg/kg to 2000 mg/kg are given to 2
(§2) mice each; ALD50 is the approximate lethal dose for half the animals
(§3) ATD50 is the approximate lowest dose where signs of physiologic or
(§4) neurologic deficit appear.

The test system of a further data set is mice. As to the kind of experiment: Toxicity, oral doses in mice (ALD50, ATD50). The format is in vivo. The following applies: compared with encainide and its hydrochloride salt. Here is the method: as §1, §2, §3, §4
The next data set concerns dog. As to the kind of experiment: Dog I.V.: anesthetized dog, effects on blood pressure, respiration and paw temperature. The data set is classed as in vivo. The settings on record: for Toxicity, Dog I.V., effect at 1 mg/kg: first dose 1 mg/kg, blood pressure, respiration, paw temperature. Here is the method: ^(2) Anesthesized dog treated first with a 1 mg/kg dose and then with
a 10 mg/kg dose; effects on blood pressure, respiration, and paw
temperature are observed.

The test system of data set [2] is ouabain induced ventricular tachycardia. As to the kind of experiment: Antiarrhythmic activity, ouabain induced ventricular tachycardia in the dog. The format is in vivo. The settings on record: compared with quinidine and encainide. An excerpt:
The present substance is an improved antiarrhythmic agent.
^(3) Anesthetized open chest dog, ouabain induced (Byrne, J.E., et al

Data set [3] deals with ventricular arrhythmia produced by chloroform inhalation. In words: Antiarrhythmic activity, ventricular arrhythmia produced in mice by chloroform inhalation. The data set is classed as in vivo. The settings on record: 10 animals per dose. An excerpt: ^(4) Ventricular arrhythmia produced in mice by chloroform inhalation
10 animals per dose (Lawson, J. W., J. Pharmacol. Exp. Therap. 160, 22

≈ marks a conversion by molar mass, not a printed value. Entries after “also recorded” stand apart in the source; their conditions may differ. Structures can show the parent of a compound that is named as a salt.

By solubility is commonly meant how much of the substance goes into solution per volume. As to `COc1ccc(C(=O)Nc2ccccc2CCC2CCCC[N+]2(C)[O-])cc1` (racemic) [Encainide N-Oxide, 4-Methoxy-N-[2-[2-(1-methyl-2-piperidyl)ethyl]phenyl]-benzamide N-oxide], the “Water solubility, in words” value in “Water solubility” is “increased water solubility; also recorded: highly water soluble”. The solubility in the data set “Water solubility” (water) was determined as 833 mg/mL (≈ 2260 mM). For the same compound, in data set [1], the LD50 lay within 500 to 1000 mg/kg and the TD50 fell in the range of 62.5 to 125 mg/kg. In addition, in the data set with mice, the “Toxicity relative to encainide, in words” value is recorded as “substantially reduced toxicity”. Further, the “Toxicity, Dog I.V., effect at 1 mg/kg” value in the data set on dog is listed as “no effect”. Further, the “Antiarrhythmic activity in ouabain induced ventricular tachycardia, in words” value in data set [2] is “comparable to quinidine in activity, but somewhat less active than encainide”. Further, the “Antiarrhythmic Activity, Mouse, I.P., activity at 31.3 mg/kg” value in data set [3] (31.3 mg/kg) was “inactive”.
Broadly, the ED50 is the midpoint of the dose-response relation. Consider `COc1ccc(C(=O)Nc2ccccc2CCC2CCCCN2C)cc1` (centres unmarked) [Encainide], for which the “Water solubility, in words” value in the data set “Water solubility” is reported as “rather low water solubility”. The Water solubility in the data set “Water solubility” (water) stood at 46.3 mg/mL. For the same compound, in data set [1], the LD50 lay within 50 to 100 mg/kg and the TD50 lay in the range of 5 to 10 mg/kg. Besides, the “Toxicity, Dog I.V., effect at 10 mg/kg” value in the data set with dog (10 mg/kg after 1 mg/kg) was “lethal”. Besides, the “Toxicity, Dog I.V., effect at 1 mg/kg” value in the data set with dog is recorded as “no effect”. This compound also displayed an ED50 in data set [3] (ip, mouse, I.P.) of 7.1 to 15 mg/kg.
On to `COc1ccc(C(=O)Nc2ccccc2CCC2CCCCN2C)cc1` (centres unmarked) [hydrochloride salt], for which, in “Water solubility”, the “Water solubility, in words” value was “higher water solubility relative to the base”. Moreover, the Water solubility in the data set “Water solubility” (water) turned out to be 205 mg/mL.
